Laboratory results: patent publication US9969726B2, “Metabotropic glutamate receptor negative allosteric modulators (NAMS) and uses thereof” (Sanford-Burnham Medical Research Institute, priority 2014, dated 2018)
Read-outs that look alike come from different tables or passages of the source.

What was measured:
rat mGlu2 receptor = rat mGlu2 receptor (Rattus norvegicus (Rat), UniProt P31421); test: mGlu2 in vitro GIRK thallium flux assay; type: cell-based; settings: NAM, EC80 glutamate, HEK-293 GIRK cells
Chain of rat mGlu2 receptor (P31421 19-872): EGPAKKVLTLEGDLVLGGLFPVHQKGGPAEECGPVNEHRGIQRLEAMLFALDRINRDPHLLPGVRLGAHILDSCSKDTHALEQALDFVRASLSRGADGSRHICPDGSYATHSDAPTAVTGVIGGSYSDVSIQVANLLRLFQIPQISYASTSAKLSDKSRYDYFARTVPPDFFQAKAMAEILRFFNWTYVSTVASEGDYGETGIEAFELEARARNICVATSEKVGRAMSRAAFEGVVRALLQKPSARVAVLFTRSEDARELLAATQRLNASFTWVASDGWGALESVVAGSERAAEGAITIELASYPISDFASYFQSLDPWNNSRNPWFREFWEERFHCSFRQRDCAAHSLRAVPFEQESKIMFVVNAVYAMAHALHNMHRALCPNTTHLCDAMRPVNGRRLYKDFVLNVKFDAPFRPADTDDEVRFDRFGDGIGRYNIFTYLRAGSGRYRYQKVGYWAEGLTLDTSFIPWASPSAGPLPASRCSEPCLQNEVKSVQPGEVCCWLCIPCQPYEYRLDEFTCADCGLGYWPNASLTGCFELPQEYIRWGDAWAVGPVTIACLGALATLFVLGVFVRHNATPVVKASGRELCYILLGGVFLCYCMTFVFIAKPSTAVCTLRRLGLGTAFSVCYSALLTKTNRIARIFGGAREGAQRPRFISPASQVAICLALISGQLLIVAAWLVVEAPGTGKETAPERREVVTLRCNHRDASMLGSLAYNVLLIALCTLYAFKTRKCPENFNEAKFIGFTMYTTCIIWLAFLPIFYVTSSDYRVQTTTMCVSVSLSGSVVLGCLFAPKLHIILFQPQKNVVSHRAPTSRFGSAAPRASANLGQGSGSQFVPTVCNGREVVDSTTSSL
Method in brief: (§1)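 Cells expressing rat mGlu2 or mGlu3 with GIRK, plated overnight at 37 °C. Test compounds (0.3% DMSO, 10-point 1:3 series) preincubated 2.5 or 60 min, then thallium buffer plus EC80 glutamate added. Fluorescence slope 5–15 s after addition, normalised to vehicle and maximal agonist, fitted by four-parameter logistic.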

[1] = Plasma stability in vitro assay; type: in vitro ADME; settings: rat plasma, 100 μM, 37.5° C.
Protocol: A 20 μL aliquot of a 10 mM solution in DMSO of the test compound was added to 2.0 mL of heparinized rat plasma (Lampire, P1-150N) to obtain a 100 μM final solution. The mixture was incubated for 1 h at 37.5° C. Aliquots of 100 μL were taken at 15 min intervals and diluted with 100 μL of MeOH/ACN. After mixing, the sample was centrifuged at approximately 13000 rpm for 12 min. The supernatant was filtered and transferred into an autosampler vial and the amount of test compound was quantified using the Shimadzu LCMS-2010EV system. The change of the AUC of the parent compound in function of time was used as a measure of plasma stability.

rat mGlu3 receptor = rat mGlu3 receptor (Rattus norvegicus (Rat), UniProt P31422); test: mGlu3 in vitro GIRK thallium flux assay; type: cell-based; settings: NAM; 2.5 min compound incubation; EC80 glutamate; HEK-293 GIRK cells
Chain of rat mGlu3 receptor (P31422 23-879): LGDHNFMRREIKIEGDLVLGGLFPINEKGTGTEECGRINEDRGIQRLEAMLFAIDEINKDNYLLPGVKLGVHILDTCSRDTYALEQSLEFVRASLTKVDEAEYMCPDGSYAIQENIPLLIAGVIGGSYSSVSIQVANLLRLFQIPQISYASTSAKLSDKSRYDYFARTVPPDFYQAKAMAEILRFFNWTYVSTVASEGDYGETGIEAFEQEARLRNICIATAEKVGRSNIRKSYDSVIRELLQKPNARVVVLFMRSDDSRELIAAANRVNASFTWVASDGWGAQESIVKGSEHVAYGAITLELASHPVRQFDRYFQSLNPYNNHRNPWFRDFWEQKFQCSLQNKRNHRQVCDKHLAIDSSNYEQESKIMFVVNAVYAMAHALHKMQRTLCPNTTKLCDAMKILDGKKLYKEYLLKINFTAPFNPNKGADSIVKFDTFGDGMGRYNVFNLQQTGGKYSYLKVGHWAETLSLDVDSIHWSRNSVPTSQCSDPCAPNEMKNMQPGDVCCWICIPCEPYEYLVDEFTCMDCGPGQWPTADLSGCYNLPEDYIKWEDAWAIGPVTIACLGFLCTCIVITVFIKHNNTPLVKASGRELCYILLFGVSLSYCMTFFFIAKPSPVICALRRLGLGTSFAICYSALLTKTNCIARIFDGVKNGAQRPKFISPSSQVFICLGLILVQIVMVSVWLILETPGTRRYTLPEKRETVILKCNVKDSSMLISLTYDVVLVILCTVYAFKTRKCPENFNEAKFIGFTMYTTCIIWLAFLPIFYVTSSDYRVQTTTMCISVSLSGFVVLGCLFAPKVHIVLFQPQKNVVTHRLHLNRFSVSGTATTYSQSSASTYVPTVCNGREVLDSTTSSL
Method in brief: as §1

[2] = Microsomal stability in vitro assay; type: in vitro ADME; settings: rat liver microsomes 1 mg/mL, 4 μM compound, 2 mM NADPH
Protocol: Pooled rat liver microsomes (BD Biosciences, #452701) were preincubated with test compounds at 37.5° C. for 5 min in the absence of NADPH. The reaction was initiated by addition of NADPH and incubated under the same conditions. The final incubation concentrations were 4 μM test compound, 2 mM NADPH, and 1 mg/mL (total protein) liver microsomes in phosphate-buffered saline (PBS) at pH 7.4. One aliquot (100 μL) of the incubation mixture was withdrawn at 15 min time points and combined immediately with 100 μL of ACN/MeOH. After mixing, the sample was centrifuged at approximately 13000 rpm for 12 min. The supernatant was filtered and transferred into an autosampler vial and the amount of test compound was quantified using a Shimadzu LCMS 2010EV mass spectrometer. The change of the AUC (area under the curve) of the parent compound as a function of time was used as a measure of microsomal stability. Test compounds were run in duplicate with a positive control.

[3] = 2.5 min compound incubation, read-out: mGlu2 EC50 (μM) (2.5 min)
[4] = mGlu2 EC50 (μM) (60 min), 60 min compound incubation
[5] = read-out: mGlu2 EC50 (μM) (60 min), 60 min compound incubation

Row | SMILES | EC50 (rat mGlu2 receptor; [3]) [µM] | EC50 (rat mGlu2 receptor; [4]) [µM] | Plasma Stability, Percent Remaining @ 1 hour [1] [%] | EC50 (rat mGlu3 receptor) [µM] | Microsomal Stability, Percent Remaining @ 1 hour [2] [%] | EC50 (rat mGlu2 receptor; [5]) [µM]
1 | O=C(O)c1cc(-c2cccc(-c3csc(-c4ccccc4)n3)c2)ccc1F [Example 1, 4-Fluoro-3′-(2-phenylthiazol-4-yl)biphenyl-3-carboxylic Acid] | 0.33 | 0.48 | 93 | 1.21 | 3 | 
2 | O=C(O)c1cc(F)cc(-c2cccc(-c3csc(-c4ccccc4)n3)c2)c1 [Example 9, 5-Fluoro-3′-(2-phenylthiazol-4-yl)biphenyl-3-carboxylic Acid] | 0.64 | 0.35 | 98 | > 10 | 4 | 
3 | O=C(O)c1cc(-c2cccc(-c3nsc(-c4ccccc4)n3)c2)ccc1F [Example 38, 4-Fluoro-3′-(5-phenyl-1,2,4-thiadiazol-3-yl)biphenyl-3-carboxylic Acid] | 0.1 | 0.05 | 65 | 0.52 | 2 | 
4 | O=C(O)c1cc(F)cc(-c2cccc(-c3nc(-c4ccc(C(F)(F)F)nc4)cc(C(F)(F)F)n3)c2)c1 [Example 76, 5-Fluoro-3′-(4-(trifluoromethyl)-6-(6-(trifluoromethyl)pyridin-3-yl)pyrimidin-2-yl)biphenyl-3-carboxylic Acid] | 1.53 |  | 100 | 1.61 | 95 | 0.09
5 | Cc1cc2c(cc1C(F)(F)F)NC(=O)CC(c1cccc(Oc3ccccn3)c1)=N2 [Example 150, 7-Methyl-4-(3-(pyridin-2-yloxy)phenyl)-8-(trifluoromethyl)-1H-benzo[b][1,4]diazepin-2(3H)-one] | 2.79 |  |  | 1.52 |  | 
6 | Cc1cc(-c2cccc(C3CC(=O)Nc4cc(NC(=O)Oc5ccccc5)ccc4N3)c2)cc(C)n1 (stereo not drawn) [Example 163, Phenyl (2-(3-(2,6-dimethylpyridin-4-yl)phenyl)-4-oxo-2,3,4,5-tetrahydro-1H-benzo[b][1,4]diazepin-7-yl)carbamate] | > 10 |  |  | > 10 |  | > 10
7 | N#Cc1cc(C2=Nc3ccc(F)cc3NC(=O)C2)ccn1 [Example 180, 4-(8-Fluoro-2-oxo-2,3-dihydro-1H-benzo[b][1,4]diazepin-4-yl)picolinonitrile] | 0.88 |  |  | 0.86 |  | 0.31
8 | N#Cc1cc(C2=Nc3ccc(Cl)cc3NC(=O)C2)ccn1 [Example 181, 4-(8-Chloro-2-oxo-2,3-dihydro-1H-benzo[b][1,4]diazepin-4-yl)picolinonitrile] | > 10 |  |  | > 10 |  | 
9 | N#Cc1cc(C2=Nc3ccc(I)cc3NC(=O)C2)ccn1 [Example 183, 4-(8-Iodo-2-oxo-2,3-dihydro-1H-benzo[b][1,4]diazepin-4-yl)picolinonitrile] | 0.11 |  |  | 0.07 |  | 0.03
10 | N#Cc1cc(C2=Nc3ccc(C#Cc4ccc(F)cc4)cc3NC(=O)C2)ccn1 [Example 185, 4-(8-((4-Fluorophenyl)ethynyl)-2-oxo-2,3-dihydro-1H-benzo[b][1,4]diazepin-4-yl)picolinonitrile] | > 10 |  |  | 1.45 |  | 
11 | O=C1CC(c2ccnc(Cl)c2)=Nc2ccc(-c3ccc(Cl)cc3)cc2N1 [Example 186, 8-(4-Chlorophenyl)-4-(2-chloropyridin-4-yl)-1,3-dihydro-2H-benzo[b][1,4]diazepin-2-one] | 2.42 |  |  | 1.36 |  | 1.01
12 | O=C1CC(c2ccnc(Cl)c2)=Nc2ccc(-c3ccccc3F)cc2N1 [Example 187, 4-(2-Chloropyridin-4-yl)-8-(2-fluorophenyl)-1,3-dihydro-2H-benzo[b][1,4]diazepin-2-one] | 0.98 |  |  | 0.71 |  | 
13 | O=C1CC(c2ccnc(Cl)c2)=Nc2ccc(-c3cccnc3F)cc2N1 [Example 188, 4-(2-Chloropyridin-4-yl)-8-(2-fluoropyridin-3-yl)-1,3-dihydro-2H-benzo[b][1,4]diazepin-2-one] | > 10 |  |  | 1.7 |  | 
14 | O=C1CC(c2ccnc(Cl)c2)=Nc2ccc(C(F)(F)F)cc2N1 [Example 189, 4-(2-Chloropyridin-4-yl)-8-(trifluoromethyl)-1,3-dihydro-2H-benzo[b][1,4]diazepin-2-one] | 0.29 |  |  | 0.28 |  | 0.08
15 | O=C1CC(c2ccnc(Cl)c2)=Nc2ccc(-c3cc(F)cc(F)c3)cc2N1 [Example 190, 4-(2-Chloropyridin-4-yl)-8-(3,5-difluorophenyl)-1,3-dihydro-2H-benzo[b][1,4]diazepin-2-one] | > 10 |  |  | > 10 |  | 
16 | CCOc1ccc(-c2ccc3c(c2)NC(=O)CC(c2ccnc(Cl)c2)=N3)cc1 [Example 192, 4-(2-Chloropyridin-4-yl)-8-(4-ethoxyphenyl)-1,3-dihydro-2H-benzo[b][1,4]diazepin-2-one] | > 10 |  |  | > 10 |  | 
17 | Cc1cccc(-c2ccc3c(c2)NC(=O)CC(c2ccnc(Cl)c2)=N3)c1 [Example 193, 4-(2-Chloropyridin-4-yl)-8-(m-tolyl)-1,3-dihydro-2H-benzo[b][1,4]diazepin-2-one] | > 10 |  |  | > 10 |  | 0.95
18 | O=C1CC(c2ccnc(Br)c2)=Nc2ccc(-c3ccc(C(F)(F)F)cc3C(F)(F)F)cc2N1 [Example 194, 8-(2,4-Bis(trifluoromethyl)phenyl)-4-(2-bromopyridin-4-yl)-1,3-dihydro-2H-benzo[b][1,4]diazepin-2-one] | > 10 |  |  | > 10 |  | 3.47
19 | COc1ccc(-c2ccc3c(c2)NC(=O)CC(c2ccnc(Cl)c2)=N3)cc1OC [Example 195, 4-(2-Chloropyridin-4-yl)-8-(3,4-dimethoxyphenyl)-1,3-dihydro-2H-benzo[b][1,4]diazepin-2-one] | 3.83 |  |  | 1.39 |  | 2.62
20 | Cc1cc(Cl)ccc1-c1ccc2c(c1)NC(=O)CC(c1ccnc(Cl)c1)=N2 [Example 196, 8-(4-Chloro-2-methylphenyl)-4-(2-chloropyridin-4-yl)-1,3-dihydro-2H-benzo[b][1,4]diazepin-2-one] | 3.59 |  |  | 2.94 |  | 0.6
21 | O=C1CC(c2ccnc(Cl)c2)=Nc2ccc(-c3ccccc3)cc2N1 [Example 197, 4-(2-Chloropyridin-4-yl)-8-phenyl-1,3-dihydro-2H-benzo[b][1,4]diazepin-2-one] | > 10 |  |  | > 10 |  | 
22 | O=C1CC(c2ccnc(-c3ccccc3)c2)=Nc2ccc(C(F)(F)F)cc2N1 [Example 198, 4-(2-Phenylpyridin-4-yl)-8-(trifluoromethyl)-1,3-dihydro-2H-benzo[b][1,4]diazepin-2-one] | > 10 |  |  | 0.46 |  | 0.26
23 | O=C1CC(c2ccnc(Cl)c2)=Nc2ccc(-c3ccc(Br)nc3)cc2N1 [Example 199, 8-(6-Bromopyridin-3-yl)-4-(2-chloropyridin-4-yl)-1,3-dihydro-2H-benzo[b][1,4]diazepin-2-one] | 1.7 |  |  | 1.82 |  | 4.27
24 | O=C1CC(c2ccnc(-c3ccccc3F)c2)=Nc2ccc(C(F)(F)F)cc2N1 [Example 200, 4-(2-(2-Fluorophenyl)pyridin-4-yl)-8-(trifluoromethyl)-1,3-dihydro-2H-benzo[b][1,4]diazepin-2-one] | > 10 |  |  | 0.75 |  | 0.22
25 | O=C1CC(c2ccnc(Cl)c2)=Nc2ccc(-c3ccc(C(F)(F)F)cc3F)cc2N1 [Example 201, 4-(2-Chloropyridin-4-yl)-8-(2-fluoro-4-(trifluoromethyl)phenyl)-1,3-dihydro-2H-benzo[b][1,4]diazepin-2-one] | > 10 |  |  | 1.61 |  | 0.52
26 | Cc1cc2c(cc1C(F)(F)F)NC(=O)CC(c1cccc(C#Cc3ccccc3)c1)=N2 [Example 202, 7-Methyl-4-(3-phenylethynyl-phenyl)-8-trifluoromethyl-1,3-dihydro-benzo[b][1,4]diazepin-2-one] | > 10 |  |  | > 10 |  | > 10
27 | Cc1cc2c(cc1C(F)(F)F)NC(=O)CC(c1cccc(C#CCO)c1)=N2 [Example 203, 4-[3-(3-Hydroxy-prop-1-ynyl)-phenyl]-7-methyl-8-trifluoromethyl-1,3-dihydro-benzo[b][1,4]diazepin-2-one] | 0.65 |  |  | 0.39 |  | 0.02
